Read-outs that look alike come from different tables or passages of the source.
Legend:
Experiment in all cases: Kinase selectivity, scanMAX Kinase assay panel (DiscoverX), % control at 1 uM
Format in all cases: binding
[1] = molecular target: T1, scanMAX Kinase assay panel (Homo sapiens, UniProt Q16816); conditions: PHKG1; 1 uM; read-out: Percent Control (%)
T1 construct: purchased DiscoverX
Summary of the method: (§1)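 Read-out is percent of control, derived from the signal with compound relative to positive and negative controls: (compound − positive)/(negative − positive) × 100. Each enzyme received test drug at 1 uM in DMSO, and values under 35% count as active.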

[2] = molecular target: T2, scanMAX Kinase assay panel (Homo sapiens, UniProt Q16832); conditions: DDR2; 1 uM; read-out: Percent Control (%)
T2 construct: purchased DiscoverX
T2 sequence (Q16832 22-855): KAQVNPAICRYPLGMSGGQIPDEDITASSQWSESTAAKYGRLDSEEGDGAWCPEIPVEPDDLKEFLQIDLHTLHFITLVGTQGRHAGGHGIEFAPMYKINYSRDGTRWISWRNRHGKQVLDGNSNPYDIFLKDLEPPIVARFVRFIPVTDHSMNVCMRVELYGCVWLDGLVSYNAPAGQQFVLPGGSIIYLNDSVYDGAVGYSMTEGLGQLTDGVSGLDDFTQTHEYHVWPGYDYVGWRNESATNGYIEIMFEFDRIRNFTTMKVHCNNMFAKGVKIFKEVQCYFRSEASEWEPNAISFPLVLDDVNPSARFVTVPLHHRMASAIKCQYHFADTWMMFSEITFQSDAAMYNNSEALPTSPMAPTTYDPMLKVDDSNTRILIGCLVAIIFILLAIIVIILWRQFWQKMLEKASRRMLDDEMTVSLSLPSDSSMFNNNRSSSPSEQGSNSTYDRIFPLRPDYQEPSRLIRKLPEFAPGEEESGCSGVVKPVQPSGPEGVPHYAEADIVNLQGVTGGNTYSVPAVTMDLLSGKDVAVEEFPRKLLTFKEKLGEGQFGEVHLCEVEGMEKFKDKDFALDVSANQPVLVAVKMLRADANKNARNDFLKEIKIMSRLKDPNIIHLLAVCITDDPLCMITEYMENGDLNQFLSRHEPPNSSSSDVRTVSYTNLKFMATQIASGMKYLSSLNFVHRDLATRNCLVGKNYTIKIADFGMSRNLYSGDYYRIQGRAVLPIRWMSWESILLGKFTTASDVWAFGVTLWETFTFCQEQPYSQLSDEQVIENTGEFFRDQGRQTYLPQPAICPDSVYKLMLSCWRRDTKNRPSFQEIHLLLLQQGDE
Summary of the method: as §1

[3] = molecular target: T3, scanMAX Kinase assay panel (Homo sapiens, UniProt Q96D53); conditions: ADCK4; 1 uM; read-out: Percent Control (%)
T3 construct: purchased DiscoverX
T3 sequence (Q96D53 1-544): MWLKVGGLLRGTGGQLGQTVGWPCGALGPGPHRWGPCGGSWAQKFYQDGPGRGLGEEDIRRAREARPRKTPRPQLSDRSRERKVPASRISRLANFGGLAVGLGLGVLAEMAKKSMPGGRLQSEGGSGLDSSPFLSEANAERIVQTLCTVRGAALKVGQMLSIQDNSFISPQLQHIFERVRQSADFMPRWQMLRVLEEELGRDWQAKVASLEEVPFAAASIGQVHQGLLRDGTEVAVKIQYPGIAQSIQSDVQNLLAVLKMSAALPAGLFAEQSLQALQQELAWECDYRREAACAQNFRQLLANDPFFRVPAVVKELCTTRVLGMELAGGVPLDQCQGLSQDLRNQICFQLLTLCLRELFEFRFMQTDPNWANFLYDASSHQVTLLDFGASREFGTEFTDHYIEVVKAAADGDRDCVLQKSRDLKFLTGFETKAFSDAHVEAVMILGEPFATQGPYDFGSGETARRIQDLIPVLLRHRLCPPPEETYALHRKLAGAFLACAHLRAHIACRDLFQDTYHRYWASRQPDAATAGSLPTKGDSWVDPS
Summary of the method: as §1

[4] = molecular target: T4, scanMAX Kinase assay panel (Homo sapiens, UniProt P20794); conditions: MAK; 1 uM; read-out: Percent Control (%)
T4 construct: purchased DiscoverX
T4 sequence (P20794 1-623): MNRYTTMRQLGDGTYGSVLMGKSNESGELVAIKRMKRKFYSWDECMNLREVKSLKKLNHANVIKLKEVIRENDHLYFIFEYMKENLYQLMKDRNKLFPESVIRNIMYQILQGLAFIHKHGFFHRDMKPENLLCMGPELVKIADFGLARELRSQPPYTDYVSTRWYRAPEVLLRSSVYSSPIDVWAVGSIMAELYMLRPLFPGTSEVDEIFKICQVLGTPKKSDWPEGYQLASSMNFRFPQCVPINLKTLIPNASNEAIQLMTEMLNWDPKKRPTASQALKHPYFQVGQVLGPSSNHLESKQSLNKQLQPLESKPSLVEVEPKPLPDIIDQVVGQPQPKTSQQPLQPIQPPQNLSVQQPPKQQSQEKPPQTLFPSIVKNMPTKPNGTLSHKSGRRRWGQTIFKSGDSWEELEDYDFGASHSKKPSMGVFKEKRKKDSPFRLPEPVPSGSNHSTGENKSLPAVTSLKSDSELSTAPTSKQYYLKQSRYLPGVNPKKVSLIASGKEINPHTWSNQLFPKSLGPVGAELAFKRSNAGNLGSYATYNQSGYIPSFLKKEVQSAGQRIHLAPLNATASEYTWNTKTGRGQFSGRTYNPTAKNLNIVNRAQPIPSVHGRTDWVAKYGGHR
Summary of the method: as §1

[5] = molecular target: T5, scanMAX Kinase assay panel (Homo sapiens, UniProt P35916); conditions: FLT4; 1 uM; read-out: Percent Control (%)
T5 construct: purchased DiscoverX
Summary of the method: as §1

[6] = molecular target: T6, scanMAX Kinase assay panel (Homo sapiens, UniProt P57059); conditions: SIK; 1 uM; read-out: Percent Control (%)
T6 construct: purchased DiscoverX
Summary of the method: as §1

[7] = molecular target: T7, scanMAX Kinase assay panel (Homo sapiens, UniProt P23458); conditions: 1 uM, read-out: Percent Control (%)
T7 construct: purchased DiscoverX
Summary of the method: as §1

[8] = molecular target: T8, scanMAX Kinase assay panel (Homo sapiens, UniProt P45983); conditions: JNK1; 1 uM; read-out: Percent Control (%)
T8 construct: purchased DiscoverX
Summary of the method: as §1

T8 sequence (P45983 whole entry): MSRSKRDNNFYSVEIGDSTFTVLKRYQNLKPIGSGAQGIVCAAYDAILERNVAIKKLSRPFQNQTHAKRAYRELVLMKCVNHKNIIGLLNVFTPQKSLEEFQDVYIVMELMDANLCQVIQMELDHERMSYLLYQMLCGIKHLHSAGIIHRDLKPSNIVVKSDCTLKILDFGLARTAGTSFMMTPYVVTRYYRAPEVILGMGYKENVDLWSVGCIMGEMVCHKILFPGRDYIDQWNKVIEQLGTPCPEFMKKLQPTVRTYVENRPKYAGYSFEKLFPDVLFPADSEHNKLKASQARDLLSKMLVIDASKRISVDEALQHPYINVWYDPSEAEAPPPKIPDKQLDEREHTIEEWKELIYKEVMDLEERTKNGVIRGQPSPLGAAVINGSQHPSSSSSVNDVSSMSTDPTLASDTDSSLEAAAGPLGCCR
T7 sequence (P23458 whole entry): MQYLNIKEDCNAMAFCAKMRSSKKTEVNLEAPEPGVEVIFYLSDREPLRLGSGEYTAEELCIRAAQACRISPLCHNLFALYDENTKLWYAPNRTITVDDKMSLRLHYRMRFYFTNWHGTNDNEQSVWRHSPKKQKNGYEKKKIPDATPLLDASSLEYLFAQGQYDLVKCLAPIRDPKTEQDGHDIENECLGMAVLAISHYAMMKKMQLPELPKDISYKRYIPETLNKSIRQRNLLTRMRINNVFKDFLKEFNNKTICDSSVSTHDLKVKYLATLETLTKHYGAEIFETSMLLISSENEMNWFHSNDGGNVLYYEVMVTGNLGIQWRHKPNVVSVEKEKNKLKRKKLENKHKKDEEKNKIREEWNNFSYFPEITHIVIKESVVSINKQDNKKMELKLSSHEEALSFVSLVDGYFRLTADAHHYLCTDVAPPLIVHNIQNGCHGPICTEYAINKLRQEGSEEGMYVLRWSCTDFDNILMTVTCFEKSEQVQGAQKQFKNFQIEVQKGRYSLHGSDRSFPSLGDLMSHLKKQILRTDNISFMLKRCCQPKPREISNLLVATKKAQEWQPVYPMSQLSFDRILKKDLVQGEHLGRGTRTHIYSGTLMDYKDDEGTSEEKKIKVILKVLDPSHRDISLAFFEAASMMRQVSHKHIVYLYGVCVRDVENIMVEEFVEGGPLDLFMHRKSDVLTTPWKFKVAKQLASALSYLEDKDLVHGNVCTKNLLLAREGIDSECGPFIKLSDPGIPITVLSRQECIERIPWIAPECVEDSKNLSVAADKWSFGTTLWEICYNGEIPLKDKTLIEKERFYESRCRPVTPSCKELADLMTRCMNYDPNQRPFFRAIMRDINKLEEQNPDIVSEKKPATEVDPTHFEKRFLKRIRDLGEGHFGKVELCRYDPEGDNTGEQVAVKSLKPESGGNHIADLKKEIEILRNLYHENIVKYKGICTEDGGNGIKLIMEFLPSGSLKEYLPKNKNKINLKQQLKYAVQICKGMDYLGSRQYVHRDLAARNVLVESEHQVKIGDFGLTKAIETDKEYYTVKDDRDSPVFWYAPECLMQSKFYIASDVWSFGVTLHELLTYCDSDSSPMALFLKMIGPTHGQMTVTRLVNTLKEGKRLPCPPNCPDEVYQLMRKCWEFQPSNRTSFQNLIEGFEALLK
T1 sequence (Q16816 whole entry): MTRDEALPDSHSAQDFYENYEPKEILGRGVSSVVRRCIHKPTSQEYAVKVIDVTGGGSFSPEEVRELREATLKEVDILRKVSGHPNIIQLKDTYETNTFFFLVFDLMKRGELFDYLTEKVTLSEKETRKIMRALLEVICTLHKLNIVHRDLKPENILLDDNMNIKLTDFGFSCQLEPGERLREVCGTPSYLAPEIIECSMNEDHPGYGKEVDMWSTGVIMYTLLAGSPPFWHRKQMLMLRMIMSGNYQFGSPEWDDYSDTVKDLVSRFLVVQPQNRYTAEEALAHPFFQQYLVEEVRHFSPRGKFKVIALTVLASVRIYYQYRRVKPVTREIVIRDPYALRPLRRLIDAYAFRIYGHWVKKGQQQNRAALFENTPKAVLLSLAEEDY
T5 sequence (P35916 25-1363): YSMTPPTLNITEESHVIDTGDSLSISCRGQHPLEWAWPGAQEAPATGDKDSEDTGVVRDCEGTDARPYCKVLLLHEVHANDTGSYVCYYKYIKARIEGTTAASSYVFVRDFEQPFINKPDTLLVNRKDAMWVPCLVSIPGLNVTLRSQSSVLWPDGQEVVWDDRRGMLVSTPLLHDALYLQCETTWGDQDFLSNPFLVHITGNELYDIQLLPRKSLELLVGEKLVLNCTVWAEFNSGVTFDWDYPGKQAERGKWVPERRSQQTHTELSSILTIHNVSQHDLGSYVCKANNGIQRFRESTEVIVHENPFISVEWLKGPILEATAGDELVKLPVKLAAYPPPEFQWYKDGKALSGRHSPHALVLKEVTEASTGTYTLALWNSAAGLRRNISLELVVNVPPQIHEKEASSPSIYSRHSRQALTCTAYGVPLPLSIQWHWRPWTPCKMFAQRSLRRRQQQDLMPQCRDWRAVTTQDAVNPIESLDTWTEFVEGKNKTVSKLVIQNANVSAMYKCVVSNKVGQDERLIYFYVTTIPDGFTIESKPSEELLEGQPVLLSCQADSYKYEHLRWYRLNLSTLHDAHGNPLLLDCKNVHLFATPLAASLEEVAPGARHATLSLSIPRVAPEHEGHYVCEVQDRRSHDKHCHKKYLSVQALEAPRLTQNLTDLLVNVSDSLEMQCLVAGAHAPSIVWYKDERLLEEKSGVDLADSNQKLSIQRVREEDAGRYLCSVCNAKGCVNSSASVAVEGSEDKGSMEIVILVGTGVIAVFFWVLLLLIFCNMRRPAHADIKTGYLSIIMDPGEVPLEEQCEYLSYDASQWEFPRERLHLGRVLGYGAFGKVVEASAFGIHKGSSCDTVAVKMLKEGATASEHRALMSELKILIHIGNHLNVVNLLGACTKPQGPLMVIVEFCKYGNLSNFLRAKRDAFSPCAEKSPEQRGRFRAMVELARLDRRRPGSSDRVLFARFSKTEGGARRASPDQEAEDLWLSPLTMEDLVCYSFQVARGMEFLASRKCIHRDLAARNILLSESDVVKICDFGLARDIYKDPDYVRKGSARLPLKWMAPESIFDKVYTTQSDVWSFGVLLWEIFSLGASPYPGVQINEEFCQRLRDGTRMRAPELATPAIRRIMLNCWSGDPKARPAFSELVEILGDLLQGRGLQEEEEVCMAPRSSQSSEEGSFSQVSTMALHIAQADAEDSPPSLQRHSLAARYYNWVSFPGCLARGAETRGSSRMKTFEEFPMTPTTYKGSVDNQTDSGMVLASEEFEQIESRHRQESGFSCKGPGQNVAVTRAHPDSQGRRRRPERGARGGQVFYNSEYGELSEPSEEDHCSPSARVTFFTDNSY
T6 sequence (P57059 whole entry): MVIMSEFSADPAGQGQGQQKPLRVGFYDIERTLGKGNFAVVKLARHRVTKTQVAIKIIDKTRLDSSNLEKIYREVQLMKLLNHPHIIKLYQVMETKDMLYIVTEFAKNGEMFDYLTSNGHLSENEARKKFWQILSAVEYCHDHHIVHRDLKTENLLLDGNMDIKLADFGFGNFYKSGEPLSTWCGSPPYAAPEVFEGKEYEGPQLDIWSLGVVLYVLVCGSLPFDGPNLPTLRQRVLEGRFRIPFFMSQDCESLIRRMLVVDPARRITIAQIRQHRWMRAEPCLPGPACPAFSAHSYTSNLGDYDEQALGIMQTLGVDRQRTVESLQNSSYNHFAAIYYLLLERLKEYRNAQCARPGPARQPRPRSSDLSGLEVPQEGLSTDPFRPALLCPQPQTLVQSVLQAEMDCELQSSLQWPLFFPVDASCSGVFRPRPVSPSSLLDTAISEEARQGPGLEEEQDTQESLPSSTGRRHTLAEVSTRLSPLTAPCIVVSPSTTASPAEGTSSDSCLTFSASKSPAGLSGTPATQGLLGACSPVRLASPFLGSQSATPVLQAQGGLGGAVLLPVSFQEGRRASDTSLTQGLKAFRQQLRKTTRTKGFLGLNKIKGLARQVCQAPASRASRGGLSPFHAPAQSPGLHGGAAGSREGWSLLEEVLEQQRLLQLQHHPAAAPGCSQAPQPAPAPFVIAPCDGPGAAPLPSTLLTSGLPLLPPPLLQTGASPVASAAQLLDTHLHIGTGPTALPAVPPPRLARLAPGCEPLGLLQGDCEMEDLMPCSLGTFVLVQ

SMILES | remaining binding at 1 µM [1] | remaining binding at 1 µM [2] | remaining binding at 1 µM [3] | remaining binding at 1 µM [4] | remaining binding at 1 µM [5] | remaining binding at 1 µM [6] | remaining binding at 1 µM ([7]; JAK1 (JH1domain-catalytic)) | remaining binding at 1 µM ([7]; JAK1 (JH2domain-pseudokinase)) | remaining binding at 1 µM [8]
Cc1ccc(NC(=O)C2(C(=O)Nc3ccc(F)cc3)CC2)cc1C#Cc1cnc2c(Nc3cnn(C(C)C)c3)cccn12 [Example 78] | 88% | 3% | 100% | 100% | 26% | 25% | 92% | 100% | 99%
Cc1cn(-c2cc(NC(=O)c3ccc(C)c(C#Cc4cnc5c(Nc6cnn(C)c6)cccn45)c3)cc(C(F)(F)F)c2)cn1 [Example 12, 4-methyl-N-(3-(4-methyl-1H-imidazol-1-yl)-5-(trifluoromethyl)phenyl)-3-((8-((1-methyl-1H-pyrazol-4-yl)amino)imidazo[1,2-a]pyridin-3-yl)ethynyl)benzamide] | 84% | 7% | 95% | 81% | 6% | 5% | 78% | 44% | 63%
Cc1ccc(C(=O)Nc2ccc(CN3CCN(C)CC3)c(C(F)(F)F)c2)cc1C#Cc1cnc2c(Nc3cnn(C)c3)cccn12 [Example 1, 4-methyl-3-((8-((1-methyl-1H-pyrazol-4-yl)amino)imidazo[1,2-a]pyridin-3-yl)ethynyl)-N-(4-((4-methylpiperazin-1-yl)methyl)-3-(trifluoromethyl)phenyl)benzamide] | 85% | 0% | 88% | 10% | 1% | 0% | 17% | 70% | 4%

Source: patent US10870647B2, “Imidazopyridine derivative, method for preparing same, and pharmaceutical composition containing same as active ingredient for preventing or treating cancer” (DAEGU-GYEONGBUK MEDICAL INNOVATION FOUNDATION, priority 2016, dated 2020)
